Test results taken from the NIST ThermoML archive (doi:10.1021/je700260f).

Details: 323.14 K, Liquid, Vibrating tube method

FC(C(F)(F)F)C(F)(F)F [1,1,1,2,3,3,3-heptafluoropropane]
Details	mass density [kg/m3]
4100 kPa	1311
4120 kPa	1311.1
4140 kPa	1311.5
4170 kPa	1311.8
4190 kPa	1312
4220 kPa	1312.3
4240 kPa	1312.4
4270 kPa	1312.8
4290 kPa	1313.1
4310 kPa	1313.2
4330 kPa	1313.5
4360 kPa	1313.8
4380 kPa	1313.9
4400 kPa	1314.2
4420 kPa	1314.6
4440 kPa	1314.6
4470 kPa	1314.9
4500 kPa	1315.2
4510 kPa	1315.3
4540 kPa	1315.5
4560 kPa	1315.8
4590 kPa	1316
4610 kPa	1316.2
4640 kPa	1316.6
4660 kPa	1316.8
4690 kPa	1317.1
4710 kPa	1317.3
4740 kPa	1317.6
4960 kPa	1319.7
4980 kPa	1320.1
5020 kPa	1320.3
5040 kPa	1320.6
5070 kPa	1320.9
5100 kPa	1321.1
5130 kPa	1321.4
5150 kPa	1321.7
5180 kPa	1321.7
5200 kPa	1322
5220 kPa	1322.3
5250 kPa	1322.6
5280 kPa	1322.9
5310 kPa	1323.2
5330 kPa	1323.3
5360 kPa	1323.7
5390 kPa	1323.9
5420 kPa	1324.1
5440 kPa	1324.3
5470 kPa	1324.7
5490 kPa	1324.9
5520 kPa	1325.2
5540 kPa	1325.4
5570 kPa	1325.7
5600 kPa	1325.9
5630 kPa	1326.2
5650 kPa	1326.4
5670 kPa	1326.6
5960 kPa	1329.4
5990 kPa	1329.5
6010 kPa	1329.7
6030 kPa	1330
6050 kPa	1330
6080 kPa	1330.3
6100 kPa	1330.6
6120 kPa	1330.7
6140 kPa	1330.8
6160 kPa	1331.1
6180 kPa	1331.2
6200 kPa	1331.4
6230 kPa	1331.8
6240 kPa	1331.8
6270 kPa	1332
6290 kPa	1332.4
6310 kPa	1332.4
6330 kPa	1332.6
6350 kPa	1333
6380 kPa	1333.1
6390 kPa	1333.3
6410 kPa	1333.5
6463 kPa	1333.8
6556 kPa	1334.6
6581 kPa	1334.8
6778 kPa	1336.5
6803 kPa	1336.7
6825 kPa	1337
6840 kPa	1337.1
6865 kPa	1337.3
6881 kPa	1337.4
6903 kPa	1337.7
6923 kPa	1337.8
6947 kPa	1338.1
6974 kPa	1338.2
7006 kPa	1338.7
7056 kPa	1338.9
7083 kPa	1339.2
7103 kPa	1339.4
7124 kPa	1339.5
7147 kPa	1339.7
7168 kPa	1339.9
7194 kPa	1340.2
7215 kPa	1340.4
7245 kPa	1340.6
7268 kPa	1340.7
7292 kPa	1341
7328 kPa	1341.3
7350 kPa	1341.5
7375 kPa	1341.7
7395 kPa	1341.7
7423 kPa	1342.1
7444 kPa	1342.2
7468 kPa	1342.4
7492 kPa	1342.6
7516 kPa	1342.8
7540 kPa	1343.1
7566 kPa	1343.2
7592 kPa	1343.5
7619 kPa	1343.7
7640 kPa	1344
7661 kPa	1344.2
7683 kPa	1344.2
7702 kPa	1344.3
7719 kPa	1344.5
7741 kPa	1344.7
7761 kPa	1344.8
7781 kPa	1345
7801 kPa	1345.1
7818 kPa	1345.3
7837 kPa	1345.4
7859 kPa	1345.7
7878 kPa	1345.9
7903 kPa	1346
7924 kPa	1346
7964 kPa	1346.4
8025 kPa	1347
8049 kPa	1347.2
8068 kPa	1347.2
8087 kPa	1347.4
8101 kPa	1347.6
8118 kPa	1347.7
8142 kPa	1347.8
8162 kPa	1348.1
8181 kPa	1348.2
8197 kPa	1348.3
8219 kPa	1348.6
8234 kPa	1348.6
8250 kPa	1348.9
8266 kPa	1348.7
8284 kPa	1349
8300 kPa	1349.3
8316 kPa	1349.2
8385 kPa	1349.8
8410 kPa	1350.2
8432 kPa	1350.1
8450 kPa	1350.4
8914 kPa	1353.9
8936 kPa	1354.2
8952 kPa	1354.1
8977 kPa	1354.5
8991 kPa	1354.6
9010 kPa	1354.7
9030 kPa	1354.9
9051 kPa	1354.9
9072 kPa	1355.2
9092 kPa	1355.3
9115 kPa	1355.4
9133 kPa	1355.7
9154 kPa	1355.8
9171 kPa	1355.9
9191 kPa	1356.1
9214 kPa	1356.3
9238 kPa	1356.3
9264 kPa	1356.7
9290 kPa	1356.9
9305 kPa	1357
9326 kPa	1357.1
9347 kPa	1357.2
9371 kPa	1357.4
9389 kPa	1357.5
9411 kPa	1357.8
9432 kPa	1357.9
9459 kPa	1358.1
9483 kPa	1358.2
9503 kPa	1358.4
9521 kPa	1358.4
9543 kPa	1358.6
9559 kPa	1358.9
9574 kPa	1358.9
9596 kPa	1359
9618 kPa	1359.2
9639 kPa	1359.5
9657 kPa	1359.5
9681 kPa	1359.8
9700 kPa	1359.9
9913 kPa	1361.5
9929 kPa	1361.6
9948 kPa	1361.8
9976 kPa	1361.9
9997 kPa	1362.1
10019 kPa	1362.3
10043 kPa	1362.2
10066 kPa	1362.5
10083 kPa	1362.6
10105 kPa	1362.8
10130 kPa	1363
10153 kPa	1363.3
10170 kPa	1363.3
